Patent US10292992B2, “Selective high-affinity polydentate ligands and methods of making such” (LAWRENCE LIVERMORE NATIONAL SECURITY, LLC, priority 2008, dated 2019)
pIC50: −log10 of the molar value. Entries after “also recorded” stand apart in the source; their conditions may differ. Like-named read-outs stand apart in the source and are kept apart here.

Columns and labels:
[1] = tested on: Raji cells expressing HLA-DR10; assay: Whole cell binding assay with 111In-labeled SHAL; type: cell-based, human; conditions: for SHAL bound by Raji cells relative to parent SHAL: unwashed
Description: Raji human Burkitt's lymphoma B-cells (American Type Culture Collection, Manassas, Va.) were maintained in RPMI-1640 media supplemented with 10% fetal bovine serum, 2mM L-glutamine, 1 mM sodium pyruvate, 1% of a solution of nonessential amino acids (GIBCO #11140-050), and 100 units/ml of Penicillin G, 100 μg/ml Streptomycin, and 0.25 μg/ml of Amphotericin B at 37° C. in a humidified 5% CO2 atmosphere. Jurkat's cells (American Type Culture Collection, Manassas, Va.), an acute leukemia T-cell line, were maintained in the same medium with the addition of 10 mM 4-(2-hydroxyethyl)-1-piperazineethanesulfonic acid (HEPES).
A series of experiments were conducted to quantify the uptake of the ^111In-labeled parent SHAL (DvLPBaPPP)2LLDo and its hexa-arginine analog (DvLPBaPPP)2LArg6AcLLDo by Raji cells, a cell line that has been previously shown to express the HLA-DR10 variant. The assays were conducted using aliquots containing 10^6 cells suspended in 150 μl of PBS with 5% bovine serum albumin (BSA). Aliquots of cells were treated with 0.1, 1, 5, 10 or 25 ng of ^111In-labeled (DvLPBaPPP)2LLDo or (DvLPBaPPP)2LArg6AcLLDo for one hour at both 4° C. and 22° C. The tubes containing the treated cells were centrifuged to separate the cell pellet from the supernatant and the two fractions were counted in a calibrated gamma well counter to determine the amount of bound and free SHAL. Half of the cell pellets were washed twice with PBS and incubated at 22° C. for 15 min before centrifuging them again. The pooled washes and washed cell pellets were subsequently counted in the gamma well counter to assess how much of the bound SHAL could be removed by washing.
In vitro cell binding experiments were conducted using ^111In-labeled parent SHAL and the hexa-arginine SHAL analog to quantify SHAL uptake and to evaluate the effect of adding the hexa-arginine tag. Uptake was assessed using Raji cells, a lymphoma cell line expressing HLA-DR10. Aliquots containing 10^6 cells were incubated with increasing amounts of SHAL containing ^111In labeled SHAL as a tracer, and cell-associated ^111In was measured before and after washing the cell pellets.

Jurkat's xenografts = assay: Efficacy in mice with Jurkat's xenografts; type: in vivo, athymic Balb/c nu/nu mice
Text: Seven- to nine-week old female, athymic Balb/c nu/nu mice (Harlan Sprague Dawley, Inc., Frederick, Md.) were maintained according to University of California animal care guidelines under pathogen-free conditions and on a normal ad libitum diet. Raji or Jurkat's cells harvested in log phase and having >95% viability were implanted (6×10^6 cells) subcutaneously in the lower abdomen 3-4 days after the mice were irradiated (400 cGy) to suppress xenograft rejection. When xenografts reached 20-500 mm3 by caliper measurement, the mice were sorted by xenograft volume into 4 groups: SHAL-treated mice with Raji xenografts, SHAL-treated mice with Jurkat's xenografts, untreated mice with Raji xenografts or untreated mice with Jurkat's xenografts. Each mouse was injected with 100 μl of PBS or 100 ng DOTA-chelated tridentate SHAL i.p. on days 0, 7 and 14. Xenograft volume and survival were monitored for ≥84 days. The mice were also weighed 2-3 times each week for 4 weeks then weekly. Blood counts were measured prior to each SHAL or PBS dose and weekly for 4 weeks after the final dose using a Z Series Coulter Counter (Beckman Coulter Inc., Hialeah, Fla.) and a phase contrast microscope (Zeiss, Jena, Germany).
Xenograft volumes were calculated by the formula for hemiellipsoids (DeNardo et al. (1997) Clin. Cancer Res. 3: 71-79). […] If a xenograft became >2000 mm3, the mouse was euthanized in accordance with University of California animal care guidelines and scored as a disease-related death.
Initial analysis compared response rates by exact tests and survival times by log-rank tests for untreated Raji and Jurkat's mice and found no significant differences, so these groups were pooled for subsequent analysis. Response rates for treated Raji, treated Jurkat's and untreated mice were compared by x^2 and exact tests. Survival times were censored at 84 days for mice who had not died or been euthanized because of tumor growth before that time. Times were summarized descriptively by Kaplan-Meier curves and median survival and 95% confidence limits were obtained by the product-limit estimate. The two treated groups were compared to the untreated using a log-rank test for homogeneity across groups, followed by a proportional hazards model to estimate the effect of treatment compared to no treatment. Analyses were carried out using SAS/SAT® software (SAS Institute, Inc. SAS/STAT Version 9.0. 2004. Cary, N.C.: SAS Institute). All tests were two-sided at level 0.05.

[2] = tested on: Raji human HLA-DR10 expressing lymphoma cells; assay: Cytotoxicity assay (trypan blue) in Raji cell culture; type: cell-based
Description: Raji cells harvested in log growth phase were centrifuged, resuspended in fresh media and counted in 10% trypan-blue dye to determine initial and subsequent viability, as previously described (West et al. (2006) Cancer Biother. Radiopharm., 21: 645-654). When untreated, cells continued to multiply and nonviable cells, initially <5% of total cells, remained so over the course of the assays. To titrate cytotoxic activity, biotinylated tridentate SHAL at concentrations ranging between 0 and 7 nM (pm/ml media) was incubated with 0.5×10^6 cells/ml at 37° C. in a 5% CO2, humidified atmosphere (NAPCO, Portland, Oreg.). After 1, 2 and 3 days, cells were resuspended in trypan blue dye and counted in a hemocytometer. The fractional viability and absolute number of viable and non-viable cells/ml were determined.

[3] = 100 ng DOTA-chelated tridentate SHAL i.p. days 0, 7 and 14

Row | Structure (SMILES) | pmoles SHAL Bound/10^6 cells unwashed ([1]; 5.3 pmoles of 111In-labeled SHAL, unwashed cell pellets) | pmoles SHAL Bound/10^6 cells Washed ([1]; 5.3 pmoles of 111In-labeled SHAL, washed two times with BSA/buffer) | SHAL remaining associated with Raji cells after washing relative to parent SHAL ([1]; 111In-labeled, after washing, listed as hexa-arginine SHAL) | SHAL bound by Raji cells relative to parent SHAL ([1]; 111In-labeled, listed as hexa-arginine SHAL) | SHAL bound by Raji cells relative to parent SHAL ([1]; 111In-labeled, listed as hexa-arginine SHAL analog) | proportion of SHAL retained by the cells after washing ([1]; Raji cells, after washing) [%] | Percent SHAL Retained ([1]; after washing two times) [%] | amount of residualized SHAL ([1]; highest concentration tested) | Cure (Jurkat's xenografts; [3]) [%] | ORR (overall response rate) (Jurkat's xenografts; [3]) [%] | longest survival (FIG. 31) (Jurkat's xenografts; 100 ng SHAL i.p. once weekly for 3 consecutive weeks) [days] | effect of SHAL treatment on Jurkat's xenografts (Jurkat's xenografts; mouse, in vivo) | median survival time (Jurkat's xenografts; treated mice with Jurkat's xenografts) [days] | threshold concentration for cytotoxic activity ([2]; Raji cell culture) [nM] | pIC50 ([2]; Raji cell culture, read-out: IC50 concentration for cytotoxic activity) | threshold SHAL cytotoxic concentration ([2]; biotinylated tridentate SHAL, determined at 2 days) | pIC50 ([2]; biotinylated tridentate SHAL, determined at 2 days, read-out: IC50 SHAL cytotoxic concentration)
1 | CC(=O)NC(CCCNC(=N)N)C(=O)NC(CCCNC(=N)N)C(=O)NC(CCCNC(=N)N)C(=O)NC(CCCNC(=N)N)C(=O)NC(CCCNC(=N)N)C(=O)NC(CCCNC(=N)N)C(=O)NCCCCC(NC(=O)C(CCCCNC(=O)COCCOCCNC(=O)COCCOCCNC(=O)COCCOCCNC(=O)C(CCCCNC(=O)COCCOCCNC(=O)c1ccc(NC(=O)C(CCCNC(=N)N)NC(=O)c2ccccc2)cc1)NC(=O)C(NS(=O)(=O)c1ccc(N=Nc2ccc(N(C)C)cc2)cc1)C(C)C)NC(=O)COCCOCCNC(=O)COCCOCCNC(=O)COCCOCCNC(=O)C(CCCCNC(=O)COCCOCCNC(=O)c1ccc(NC(=O)C(CCCNC(=N)N)NC(=O)c2ccccc2)cc1)NC(=O)C(NS(=O)(=O)c1ccc(N=Nc2ccc(N(C)C)cc2)cc1)C(C)C)C(=O)NC(CCCCNC(=O)CN1CCN(CC(=O)O)CCN(CC(=O)O)CCN(CC(=O)O)CC1)C(=O)O (centres unmarked) [(DvLPBaPPP)2LArg6AcLLDo] | 1.300 ± 0.038 pmoles SHAL Bound/10^6 cells | 0.876 ± 0.017 pmoles SHAL Bound/10^6 cells | Three fold more; also recorded: three times | twice as much | two fold more | 67 | 67 | ~1.1×10^6 SHAL molecules per cell | – | – | – | – | – | – | – | – | –
2 | CC(C)C(NS(=O)(=O)c1ccc(N=Nc2ccc(N(C)C)cc2)cc1)C(=O)NCCOCCOCC(=O)NC(CCCCNC(=O)C(CCCCNC(=O)CC(=O)Nc1ccccc1Oc1ncc(C(F)(F)F)cc1Cl)NC(=O)COCCOCCNC(=O)c1ccc(N2CCN(Cc3ccc(Cl)cc3)CC2)c([N+](=O)[O-])c1)C(=O)NCCOCCOCC(=O)NC(CCCCNC(=O)CN1CCN(CC(=O)O)CCN(CC(=O)O)CCN(CC(=O)O)CC1)C(=O)O (centres unmarked) [tridentate SHAL] | – | – | – | – | – | – | – | – | 0 | 0 | ≤ 56 | not affected | 21 | 0.7 | 8.60 | 0.7 nM (pm/ml media) | 8.60
